This is an account of results in patent US20070249555A1, “Use of Atp Analogues for Treatment of Cardiovascular Diseases” (INSTITUT NATIONAL DE LA SANTE ET DE LA RECHERCHE MEDICALE …, priority 2004, published 2007).

The term IC50 denotes the midpoint of a concentration-inhibition curve.

What all share (type): cell-based
The target of experiment [1] is human P2Y12 receptor (Homo sapiens, UniProt Q9H244). Description: forskolin-induced cAMP formation in hP2Y12-CHO-K1 cells. Background: Changes in cAMP serve as a functional read-out for many G protein-coupled receptors.
Sequence of human P2Y12 receptor (Q9H244 whole entry): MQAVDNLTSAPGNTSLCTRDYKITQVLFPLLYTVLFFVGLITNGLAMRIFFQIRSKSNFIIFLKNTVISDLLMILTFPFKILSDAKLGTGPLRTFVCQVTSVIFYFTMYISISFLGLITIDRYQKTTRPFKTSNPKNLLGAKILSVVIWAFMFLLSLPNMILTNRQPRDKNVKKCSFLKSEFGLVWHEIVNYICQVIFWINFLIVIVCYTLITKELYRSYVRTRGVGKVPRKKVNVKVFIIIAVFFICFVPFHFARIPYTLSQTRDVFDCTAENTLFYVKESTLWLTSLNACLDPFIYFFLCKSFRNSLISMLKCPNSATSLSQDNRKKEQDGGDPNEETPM
Description: FIG. 2C: Effect ADP (▴), AR-C69931MX (●) and ADP in presence of AR-C69931MX (100 nM) (▪) on forskolin (FSK: 3 μM)-induced cAMP formation in hP2Y12-CHO-K1 cells. The cells were incubated with various concentrations of these agents for 12 min. Data are expressed in % of the value with forskolin alone and presented as mean ±S.E.M. of 3 (ADP) or 2 (AR-C69931MX) independent experiments, each performed in triplicates.
The stably transfected CHO-K1 cells (200,000 cells/dish) were seeded on 35-mm diameter cell culture dishes in complete medium one day before the experiment. […] Cyclic AMP was quantified by 125l radioimmunoassay, as described in Communi et al., J Biol Chem, 2001, 276: 41479-85.
Experiment [2] deals with T1, human P2Y13 receptor (Homo sapiens, UniProt Q9BPV8).
T1 construct: host or cells: HepG2
T1 sequence (Q9BPV8 1-354): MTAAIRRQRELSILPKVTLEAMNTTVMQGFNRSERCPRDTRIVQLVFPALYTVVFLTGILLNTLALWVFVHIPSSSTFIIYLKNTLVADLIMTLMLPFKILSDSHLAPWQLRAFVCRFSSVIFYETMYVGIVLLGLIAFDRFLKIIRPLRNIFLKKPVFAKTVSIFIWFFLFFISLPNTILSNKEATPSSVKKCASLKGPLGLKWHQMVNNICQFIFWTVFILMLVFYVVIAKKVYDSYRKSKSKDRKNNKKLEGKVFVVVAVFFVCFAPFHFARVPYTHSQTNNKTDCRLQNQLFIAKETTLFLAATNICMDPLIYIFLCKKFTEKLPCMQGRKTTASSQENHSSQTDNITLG
Briefly: HDL3 internalization by HepG2 cells after P2Y13 receptor silencing by siRNA. The note with it: 75 μg/ml 125I-HDL3, ADP 100 nM, AR-C69931MX 100 nM. As for the experimental part: Cells were transiently transfected with siRNA designated to human P2Y13 receptor (column c, d, e). 48 hours later, cells were incubated for 10 minutes at 37° C. with 75 μg/ml ^125I-HDL3 without (control) or with ADP 100 nM (a and c), AR-C69931MX 100 nM (b and d), PBS (e) (n>5); (*) p<0.05 (unpaired t-test).
Internalization assays were performed as described in Guendouzi et al., (Biochemistry, 1998, 37: 14974-80) on HepG2 cells, obtained from the American Type Culture Collection ([…]). Cells were incubated for 10 minutes at 37° C. with 75 μg/ml of either ^125I-TG-HDL2, ^125I-HDL3 or ^125I-LDL. After washing and dissociation at 4° C. in phosphate buffered saline (PBS), cell radioactivity was determined using a Wallac 1261 multigamma apparatus.
The silencing of the different P2Y receptors were carried-out using the siRNA technique. The siRNA sequenced targeting human P2Y13 receptor (Gene Bank GB/EMBL/DDBJ accession number AF295368) was from position 406 or 359 relative to the start codon. […]
Results are expressed as a percentage of internalization with respect to the control value (set at 0). […]

Experiment [3] deals with T2, human P2Y13 receptor (Homo sapiens, UniProt Q9BPV8).
T2 construct: expressed in transfected cells
T2 sequence (Q9BPV8 22-354 limits assumed): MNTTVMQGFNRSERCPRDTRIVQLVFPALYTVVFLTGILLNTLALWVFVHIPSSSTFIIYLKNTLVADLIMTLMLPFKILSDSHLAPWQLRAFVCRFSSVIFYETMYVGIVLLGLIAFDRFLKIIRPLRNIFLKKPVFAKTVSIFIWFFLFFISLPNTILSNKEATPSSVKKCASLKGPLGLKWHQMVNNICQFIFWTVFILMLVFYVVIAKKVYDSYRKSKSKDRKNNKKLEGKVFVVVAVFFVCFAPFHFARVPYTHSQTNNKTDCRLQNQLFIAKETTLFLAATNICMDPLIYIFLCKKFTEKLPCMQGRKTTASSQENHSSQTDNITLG
Description: forskolin-induced cAMP formation in hP2Y13-CHO-K1 cells. The note with it: forskolin 3 μM; for maximal inhibition (decrease) of forskolin-induced cAMP accumulation / IC50: hP2Y13-CHO-K1 cells, 12 min; for IC50: read-out: IC50 for inhibition of forskolin-induced cAMP accumulation. On the procedure:
The cells were incubated with various concentrations of these agents for 12 min as described in “Materials and Methods”. Data are expressed in % on the value with forskolin alone and presented as mean ±S.D. of triplicates in one representative experiment out of 4.
AR-C69931MX and ADP (at increasing concentrations) were added simultaneously with forskolin to hP2Y13-CHO-K1 cells for a 12 min incubation period. Data are expressed in % of the value with forskolin alone and presented as mean ±S.D. of triplicates in one representative experiment out of 2. (▴): ADP without AR-C69931MW; (●): ADP+AR-C69931MX (100 nM).
The cyclic AMP assays was performed on CHO-K1 cell lines expressing recombinant P2Y receptors as follows.
The CHO-K1 cell line stably expressing the human P2Y13 receptor has been previously described (Communi et al., J Biol Chem, 2001, 276: 41479-85). The plasmid of human P2Y12 receptor (hP2Y12-pEFIN5) was obtained from Euroscreen (Gosselies, Belgium) and was stably transfected into CHO-K1 cells by using the FuGENETM6 transfection reagent (Roche Applied Science, Mannheim, Germany). Transfected cells were selected using G418 (400 μg/ml). The hP2Y13-CHO-K1 and HP2Y12-CHO-K1 cells were grown in Ham'S F12 cell culture medium (Invitrogen-France) supplemented with fetal bovine serum (10%, v/v), penicillin (100 units/ml), streptomycin (100 μg/ml) and G418 (400 μg/ml).
The stably transfected CHO-K1 cells (200,000 cells/dish) were seeded on 35-mm diameter cell culture dishes in complete medium one day before the experiment. Cells were incubated for 2 hours in Krebs-Ringer-Hepes (KRH) buffer (124 mM NaCl, 5 mM KCl, 1.25 mM MgSO4, 1.45 mM CaCl2, 1.25 mM KH2PO4, 25 mM HEPES, pH 7.4, and 8 mM D-glucose) containing 25 μM Rolipram. Nucleotides were then added in presence of 3 μM forskolin, usually for a 12 min incubation (37° C.). The reactions were stopped by aspiration of the incubation medium and addition of 1 ml of 0.1 M HCl. The lysates were then vacuum dried and re-suspended in an appropriate volume of water. Cyclic AMP was quantified by 125l radioimmunoassay, as described in Communi et al., J Biol Chem, 2001, 276: 41479-85.

In the case of `CSCCNc1nc(SCCC(F)(F)F)nc2c1ncn2[C@@H]1O[C@H](COP(=O)(O)OP(=O)(O)C(Cl)(Cl)P(=O)(O)O)[C@@H](O)[C@H]1O` [AR-C69931MX, N-[2-(methylthio)ethyl]-2-[(3,3,3-trifluoropropyl)thio]-5′-adenylic acid, monoanhydride with dichloromethylenebisphosphonic acid], the “effect on ADP inhibition of cAMP accumulation” value in experiment [1] (AR-C69931MX 100 nM with ADP) is “shifted the ADP inhibition to higher concentrations”. Besides, the “effect per se on cAMP accumulation by forskolin” value in experiment [1] (forskolin 3 μM, 12 min) is listed as “no effect”. In addition, the “effect of P2Y13 receptor silencing on HDL3 internalization after stimulation” value in experiment [2] is given as “strong inhibition”. The “behaviour at P2Y13 receptor (modulation of ADP effect on cAMP)” value in experiment [3] (AR-C69931MX 100 nM with increasing ADP) was “partial agonist”. Also, in experiment [3], the “maximal inhibition (decrease) of forskolin-induced cAMP accumulation” value was 25% and the IC50 was determined as 0.5 ± 0.1 nM.
As for `Nc1ncnc2c1ncn2[C@@H]1O[C@H](COP(=O)(O)OP(=O)(O)O)[C@@H](O)[C@H]1O` [ADP, adenosine diphosphate, reference compound], the “effect of P2Y13 receptor silencing on HDL3 internalization after stimulation” value in experiment [2] is “strong inhibition”. In addition, in experiment [3], the “maximal inhibition (decrease) of forskolin-induced cAMP accumulation” value was determined as 70% and the IC50 was found to be 0.6 ± 0.2 nM.
